Paper PMC8580996, “2-Oxoglutarate derivatives can selectively enhance or inhibit the activity of human oxygenases” (Nature Communications, 2021)
Where “and” joins values, the source holds several entries; their conditions need not be identical. Equal values may be shown once.

Experiments:
AspH [1] = molecular target: T1, AspH (Homo sapiens, UniProt Q12797); details: 0.05 μM AspH, 1.0 μM hFX-CP101-119, 3.0 μM 2OG, ref 21 (supplementary ref 1); cited from earlier work
T1 construct: the tetratricopeptide repeat domain (His6-AspH315-758), was produced and purified as previously reported; made in house
T1 sequence (Q12797 315-758): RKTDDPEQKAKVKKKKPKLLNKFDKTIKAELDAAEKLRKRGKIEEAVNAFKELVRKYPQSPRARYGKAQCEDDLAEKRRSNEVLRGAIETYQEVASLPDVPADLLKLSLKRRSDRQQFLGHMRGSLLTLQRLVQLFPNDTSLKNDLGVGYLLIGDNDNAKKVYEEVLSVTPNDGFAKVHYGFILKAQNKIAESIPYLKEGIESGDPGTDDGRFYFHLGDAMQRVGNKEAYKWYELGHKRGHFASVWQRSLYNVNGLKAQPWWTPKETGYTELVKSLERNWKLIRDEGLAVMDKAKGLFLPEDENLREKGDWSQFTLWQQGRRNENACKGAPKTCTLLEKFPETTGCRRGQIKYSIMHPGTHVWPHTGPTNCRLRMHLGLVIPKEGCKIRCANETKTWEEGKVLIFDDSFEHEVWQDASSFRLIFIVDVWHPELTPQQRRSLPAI

AspH [2] = molecular target: T1, AspH; design: method as in PMID 34163896; details: hFX-CP101–119 substrate, 330 μM 2OG or 2OG derivative, t = 15 min; cited from earlier work
FIH = FIH (Homo sapiens, UniProt Q9NWT6); test: FIH steady-state kinetic parameters (SPE-MS, initial hydroxylation rates); assay type: biochemical; design: slope of initial reaction rate: unit not given here
FIH, sequence (Q9NWT6 whole entry): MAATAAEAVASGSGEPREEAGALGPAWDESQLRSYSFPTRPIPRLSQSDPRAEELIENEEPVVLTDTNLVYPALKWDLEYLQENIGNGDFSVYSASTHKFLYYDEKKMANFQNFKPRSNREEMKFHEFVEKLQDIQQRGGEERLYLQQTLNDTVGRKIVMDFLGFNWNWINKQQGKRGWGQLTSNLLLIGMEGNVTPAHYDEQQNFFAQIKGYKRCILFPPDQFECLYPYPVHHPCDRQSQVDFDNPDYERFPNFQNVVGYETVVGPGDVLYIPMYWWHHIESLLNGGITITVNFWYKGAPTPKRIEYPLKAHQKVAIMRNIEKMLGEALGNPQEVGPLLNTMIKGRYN
Method: Final 2OG/2OG derivative concentrations are given in Supplementary Figs. 5 and 6. Reactions were monitored with a rate of ~1 sample/40 s using the same SPE-MS configuration as described above. Data were analyzed as described above and the slopes of the initial reaction rates (Supplementary Figs. 5 and 6) fitted to a Michaelis–Menten plot using non-linear regression (GraphPad Prism 5). […]
determine kinetic parameters for 2OG derivatives (continues on the following page). Maximum velocities (vapp ) and Michaelis constants (Kapp) of FIH were determined in independent triplicates for 2OG and the 2OG […]
SPE-MS as described in the Methods section. […]
acid (LAA), and 20 μM ammonium iron(II) sulfate hexahydrate (FAS, (NH4)2Fe(SO4)2·6H2O) in buffer (50 mM […]
Tris, 50 mM NaCl, pH 7.5, 20° C). […]
data are provided as a Source Data file. […]
concentrations of 2OG; (b) hydroxylation rates used to determine kinetic parameters of FIH for 2OG; (c) time […]
3-methyl-2OG (1); (d) hydroxylation rates used to determine kinetic parameters of FIH for 1; (e) time course of […]
2OG (12); (f) hydroxylation rates used to determine kinetic parameters of FIH for 12; (g) time course of the FIH- […]
(h) hydroxylation rates used to determine kinetic parameters of FIH for 14; (i) time course of the FIH-catalyzed […]
(carboxycarbonyl)cyclopentane-1-carboxylic acid (22); (j) hydroxylation rates used to determine kinetic parameters of FIH for 22.
Supplementary Figure 6. Hydroxylation rates of FIH-catalyzed CA1-20 hydroxylations used to determine kinetic parameters for 2OG derivatives (continues on the following page). Maximum velocities (vapp ) and […]
ammonium iron(II) sulfate hexahydrate (FAS, (NH4)2Fe(SO4)2·6H2O) in buffer (50 mM Tris, 50 mM NaCl, pH […]
Source data are provided as a Source […]
of 2OG; (b) hydroxylation rates used to determine kinetic parameters of FIH for 2OG; (c) time course of the FIH-catalyzed hydroxylation reaction of the CA1-20 peptide for the shown concentrations of 3-methyl-2OG (1); (d) hydroxylation rates used to determine kinetic parameters of FIH for 1; (e) time course of the FIH -catalyzed hydroxylation reaction of the CA 1-20 peptide for the shown concentrations of 4 -methyl-2OG (12); (f) hydroxylation rates used to determine kinetic parameters of FIH for 12; (g) time course of the FIH-catalyzed hydroxylation reaction of the CA1-20 peptide for the shown concentrations of 4-ethyl-2OG (14); (h) hydroxylation rates used to determine kinetic parameters of FIH for 14; (i) time course of the FIH-catalyzed hydroxylation reaction of the CA1-20 peptide for the shown concentrations of 3-(carboxycarbonyl)cyclopentane-1-carboxylic acid (22); (j) hydroxylation rates used to determine kinetic parameters of FIH for 22.

SPE-MS determined concentration of hydroxylated HIF-1a peptide (FIH; 0.5 uM compound 1, time 2.098 min): 0.06331 µM and 0.08965 µM and 0.06287 µM | SPE-MS determined concentration of hydroxylated HIF-1a peptide (FIH; 0.5 uM compound 1, time 2.797 min): 0.08372 µM and 0.1109 µM and 0.07695 µM | SPE-MS determined concentration of hydroxylated HIF-1a peptide (FIH; 0.5 uM compound 1, time 3.49667 min): 0.08826 µM and 0.1256 µM and 0.08643 µM | SPE-MS determined concentration of hydroxylated HIF-1a peptide (FIH; 1 uM compound 1, time 0.699833 min): 0.05043 µM and 0.061 µM and 0.05097 µM | SPE-MS determined concentration of hydroxylated HIF-1a peptide (FIH; 1 uM compound 1, time 2.098 min): 0.09957 µM and 0.1098 µM and 0.1306 µM | SPE-MS determined concentration of hydroxylated HIF-1a peptide (FIH; 1 uM compound 1, time 2.797 min): 0.1199 µM and 0.1466 µM and 0.1681 µM | SPE-MS determined concentration of hydroxylated HIF-1a peptide (FIH; 1 uM compound 1, time 3.49667 min): 0.1336 µM | SPE-MS determined concentration of hydroxylated HIF-1a peptide (FIH; 2 uM compound 1, time 0.699833 min): 0.07885 µM and 0.08056 µM and 0.05916 µM | SPE-MS determined concentration of hydroxylated HIF-1a peptide (FIH; 2 uM compound 1, time 2.098 min): 0.1678 µM and 0.1886 µM and 0.1681 µM | SPE-MS determined concentration of hydroxylated HIF-1a peptide (FIH; 2 uM compound 1, time 2.797 min): 0.2164 µM and 0.22 µM and 0.1894 µM | SPE-MS determined concentration of hydroxylated HIF-1a peptide (FIH; 2 uM compound 1, time 3.49667 min): 0.2473 µM and 0.2744 µM and 0.2266 µM | SPE-MS determined concentration of hydroxylated HIF-1a peptide (FIH; 4 uM compound 1, time 0.699833 min): 0.1172 µM and 0.1135 µM and 0.107 µM | SPE-MS determined concentration of hydroxylated HIF-1a peptide (FIH; 4 uM compound 1, time 2.098 min): 0.2558 µM and 0.2656 µM and 0.234 µM | SPE-MS determined concentration of hydroxylated HIF-1a peptide (FIH; 4 uM compound 1, time 2.797 min): 0.3116 µM and 0.3222 µM and 0.2973 µM | SPE-MS determined concentration of hydroxylated HIF-1a peptide (FIH; 4 uM compound 1, time 3.49667 min): 0.3622 µM and 0.3831 µM and 0.3473 µM | SPE-MS determined concentration of hydroxylated HIF-1a peptide (FIH; 8 uM compound 1, time 0.699833 min): 0.1456 µM and 0.1338 µM and 0.1272 µM | SPE-MS determined concentration of hydroxylated HIF-1a peptide (FIH; 8 uM compound 1, time 2.098 min): 0.3135 µM and 0.3095 µM and 0.2806 µM | SPE-MS determined concentration of hydroxylated HIF-1a peptide (FIH; 8 uM compound 1, time 2.797 min): 0.4067 µM and 0.3823 µM and 0.3379 µM | SPE-MS determined concentration of hydroxylated HIF-1a peptide (FIH; 8 uM compound 1, time 3.49667 min): 0.4757 µM and 0.4602 µM and 0.409 µM | SPE-MS determined concentration of hydroxylated HIF-1a peptide (FIH; 16 uM compound 1, time 0.699833 min): 0.1765 µM and 0.1666 µM and 0.1574 µM | SPE-MS determined concentration of hydroxylated HIF-1a peptide (FIH; 16 uM compound 1, time 2.098 min): 0.4139 µM and 0.367 µM and 0.3575 µM | SPE-MS determined concentration of hydroxylated HIF-1a peptide (FIH; 16 uM compound 1, time 2.797 min): 0.521 µM and 0.462 µM and 0.4549 µM | SPE-MS determined concentration of hydroxylated HIF-1a peptide (FIH; 16 uM compound 1, time 3.49667 min): 0.6245 µM and 0.5486 µM and 0.5372 µM | SPE-MS determined concentration of hydroxylated HIF-1a peptide (FIH; 32 uM compound 1, time 0.699833 min): 0.1826 µM and 0.1844 µM and 0.1573 µM | SPE-MS determined concentration of hydroxylated HIF-1a peptide (FIH; 32 uM compound 1, time 2.098 min): 0.3964 µM and 0.4231 µM and 0.3597 µM | SPE-MS determined concentration of hydroxylated HIF-1a peptide (FIH; 32 uM compound 1, time 2.797 min): 0.4756 µM and 0.5305 µM and 0.4654 µM | SPE-MS determined concentration of hydroxylated HIF-1a peptide (FIH; 32 uM compound 1, time 3.49667 min): 0.5827 µM and 0.6364 µM and 0.5668 µM | slope of initial reaction rate (FIH; CA1-20, 1 μM 1): 0.003599 and 0.003561 and 0.003828 | slope of initial reaction rate (FIH; CA1-20, 2 μM 1): 0.005878 and 0.006514 and 0.003549 | slope of initial reaction rate (FIH; CA1-20, 4 μM 1): 0.007274 and 0.005274 and 0.008096 | slope of initial reaction rate (FIH; CA1-20, 8 μM 1): 0.01215 and 0.01007 and 0.00891 | slope of initial reaction rate (FIH; HIF-1a788-822, 0.5 μM 1): 0.000467 and 0.000683 and 0.000488 | slope of initial reaction rate (FIH; HIF-1a788-822, 1 μM 1): 0.000739 and 0.000996 and 0.000679 | slope of initial reaction rate (FIH; HIF-1a788-822, 2 μM 1): 0.001185 and 0.001312 and 0.001139 | slope of initial reaction rate (FIH; HIF-1a788-822, 4 μM 1): 0.001713 and 0.001863 and 0.001678 | slope of initial reaction rate (FIH; HIF-1a788-822, 8 μM 1): 0.002198 and 0.002166 and 0.001912 | slope of initial reaction rate (FIH; HIF-1a788-822, 16 μM 1): 0.002859 and 0.002469 and 0.002609 | slope of initial reaction rate (FIH; HIF-1a788-822, 32 μM 1): 0.002446 and 0.002883 and 0.002629
SMILES: CC(CC(=O)O)C(=O)C(=O)O (stereo not shown) [compound 1, 3-methyl-2OG]
IC50 AspH (AspH [1]): inactive | AspH activity, %-substrate conversion (AspH [2]): >95%
